In ChEMBL document CHEMBL1154782, “Discovery of Trp-His and His-Arg analogues as new structural classes of short antimicrobial peptides” (J Med Chem, 2009):
In brackets after ≈: the same amount, converted by molar mass. Where a SMILES comes first, the peptide text is derived from it. The star is where a group is joined. NHBn = c1ccc(CN*)cc1

Legend:
[1] = system: Staphylococcus epidermidis; test: Antibacterial activity against methicillin-resistant Staphylococcus epidermidis DSM 50160384; format: functional, organism-based
Escherichia coli [2] = test: Antibacterial activity against Escherichia coli ATCC 35218; format: functional, organism-based
Staphylococcus aureus [3] = test: Antibacterial activity against methicillin-resistant Staphylococcus aureus DSM 50128509 after 15 to 18 hrs under aerobic condition by modified broth microdilution method; format: functional
Escherichia coli [4] = test: Antibacterial activity against Escherichia coli ATCC 35218 after 15 to 18 hrs under aerobic condition by modified broth microdilution method; format: functional
Candida albicans [5] = test: Antifungal activity against Candida albicans ATCC 10231 after 15 to 18 hrs under aerobic condition by modified broth microdilution method; format: functional
Candida albicans [6] = test: Antifungal activity against Candida albicans ATCC 10231; format: functional, organism-based
[7] = system: Staphylococcus epidermidis; test: Antibacterial activity against methicillin-resistant Staphylococcus epidermidis DSM 50160384 after 15 to 18 hrs under aerobic condition by modified broth microdilution method; format: functional
Staphylococcus aureus [8] = test: Antibacterial activity against methicillin-resistant Staphylococcus aureus DSM 50128509; format: functional, organism-based
Pseudomonas aeruginosa = test: Antibacterial activity against Pseudomonas aeruginosa ATCC 9027 after 15 to 18 hrs under aerobic condition by modified broth microdilution method; format: functional
L929 = test: Cytotoxicity against mouse L929 cells up to 200 ug/mL after 5 days by MTT assay; format: cell-based; conditions: l929, 120 h
Klebsiella pneumoniae [9] = test: Antibacterial activity against Klebsiella pneumoniae ATCC 700603 after 15 to 18 hrs under aerobic condition by modified broth microdilution method; format: functional
Klebsiella pneumoniae [10] = test: Antibacterial activity against Klebsiella pneumoniae ATCC 700603; format: functional, organism-based

Structure (SMILES)	IC50 [1]	IC50 (Escherichia coli [2])	MIC (Staphylococcus aureus [3])	MIC (Escherichia coli [4])	MIC (Candida albicans [5])	IC50 (Candida albicans [6])	MIC [7]	IC50 (Staphylococcus aureus [8])	MIC (Pseudomonas aeruginosa)	Activity (L929)	MIC (Klebsiella pneumoniae [9])	IC50 (Klebsiella pneumoniae [10])
COC(=O)[C@H](Cc1c[nH]c(C2CCCCC2)n1)NC(=O)[C@H](Cc1c[nH]c2ccccc12)NC(=O)OC(C)(C)C	6.29 µg/mL (≈ 11.7 µM)	20.9 µg/mL (≈ 38.8 µM)	200 µg/mL (≈ 372 µM)	200 µg/mL (≈ 372 µM)	200 µg/mL (≈ 372 µM)	17.7 µg/mL (≈ 32.9 µM)	50 µg/mL (≈ 93 µM)	14 µg/mL (≈ 26 µM)	> 200 µg/mL	Non-toxic	> 200 µg/mL	–
COC(=O)[C@H](Cc1c[nH]c(C23CC4CC(CC(C4)C2)C3)n1)NC(=O)[C@H](Cc1c[nH]c2ccccc12)NC(=O)OC(C)(C)C	4.03 µg/mL (≈ 6.83 µM)	6.59 µg/mL (≈ 11.2 µM)	20 µg/mL (≈ 33.9 µM)	100 µg/mL (≈ 170 µM)	200 µg/mL (≈ 339 µM)	26.6 µg/mL (≈ 45.1 µM)	50 µg/mL (≈ 84.8 µM)	1.69 µg/mL (≈ 2.87 µM)	> 200 µg/mL	Non-toxic	> 200 µg/mL	–
N[C@@H](Cc1c[nH]c2ccccc12)C(=O)N[C@@H](Cc1c[nH]c(C2CCC2)n1)C(=O)NCc1ccccc1	8.51 µg/mL (≈ 17.6 µM)	22.5 µg/mL (≈ 46.4 µM)	100 µg/mL (≈ 206 µM)	200 µg/mL (≈ 413 µM)	100 µg/mL (≈ 206 µM)	10.3 µg/mL (≈ 21.3 µM)	50 µg/mL (≈ 103 µM)	27.1 µg/mL (≈ 55.9 µM)	> 200 µg/mL	Non-toxic	> 200 µg/mL	–
COC(=O)[C@H](Cc1c[nH]c(C2CCC2)n1)NC(=O)[C@H](Cc1c[nH]c2ccccc12)NC(=O)OC(C)(C)C	5.44 µg/mL (≈ 10.7 µM)	24.6 µg/mL (≈ 48.3 µM)	100 µg/mL (≈ 196 µM)	200 µg/mL (≈ 392 µM)	> 200 µg/mL	–	100 µg/mL (≈ 196 µM)	2.95 µg/mL (≈ 5.79 µM)	> 200 µg/mL	Non-toxic	> 200 µg/mL	–
COC(=O)[C@H](CCCNC(=N)N)NC(=O)[C@@H](N)Cc1c[nH]c(C(C)C)n1	5.42 µg/mL (≈ 14.8 µM)	9.98 µg/mL (≈ 27.2 µM)	50 µg/mL (≈ 136 µM)	200 µg/mL (≈ 544 µM)	> 200 µg/mL	–	50 µg/mL (≈ 136 µM)	4.82 µg/mL (≈ 13.1 µM)	> 200 µg/mL	Non-toxic	> 200 µg/mL	–
CC(C)(C)OC(=O)N[C@@H](Cc1c[nH]c(C(C)(C)C)n1)C(=O)N[C@@H](CCCNC(=N)N)C(=O)NCc1ccccc1	–	12 µg/mL (≈ 21.6 µM)	200 µg/mL (≈ 359 µM)	100 µg/mL (≈ 180 µM)	200 µg/mL (≈ 359 µM)	33.1 µg/mL (≈ 59.5 µM)	> 200 µg/mL	17.5 µg/mL (≈ 31.5 µM)	> 200 µg/mL	Non-toxic	> 200 µg/mL	–
COC(=O)[C@H](Cc1c[nH]c(C(C)(C)C)n1)NC(=O)[C@H](Cc1c[nH]c2ccccc12)NC(=O)OC(C)(C)C	8.12 µg/mL (≈ 15.9 µM)	16.3 µg/mL (≈ 31.8 µM)	50 µg/mL (≈ 97.7 µM)	200 µg/mL (≈ 391 µM)	> 200 µg/mL	–	100 µg/mL (≈ 195 µM)	4.35 µg/mL (≈ 8.5 µM)	> 200 µg/mL	Non-toxic	> 200 µg/mL	–
COC(=O)[C@H](Cc1c[nH]c(C2CCC2)n1)NC(=O)[C@@H](N)Cc1c[nH]c2ccccc12	14.5 µg/mL (≈ 35.5 µM)	9.48 µg/mL (≈ 23.2 µM)	200 µg/mL (≈ 488 µM)	200 µg/mL (≈ 488 µM)	200 µg/mL (≈ 488 µM)	18.2 µg/mL (≈ 44.6 µM)	200 µg/mL (≈ 488 µM)	9.54 µg/mL (≈ 23.3 µM)	> 200 µg/mL	Non-toxic	> 200 µg/mL	–
COC(=O)[C@H](Cc1c[nH]c(C(C)C)n1)NC(=O)[C@@H](N)Cc1c[nH]c2ccccc12	–	12.2 µg/mL (≈ 30.7 µM)	200 µg/mL (≈ 503 µM)	200 µg/mL (≈ 503 µM)	200 µg/mL (≈ 503 µM)	15.6 µg/mL (≈ 39.3 µM)	> 200 µg/mL	13.1 µg/mL (≈ 33 µM)	> 200 µg/mL	Non-toxic	> 200 µg/mL	–
COC(=O)[C@H](Cc1c[nH]c(C(C)(C)C)n1)NC(=O)[C@@H](N)Cc1c[nH]c2ccccc12	6.73 µg/mL (≈ 16.4 µM)	19 µg/mL (≈ 46.2 µM)	10 µg/mL (≈ 24.3 µM)	200 µg/mL (≈ 486 µM)	> 200 µg/mL	–	100 µg/mL (≈ 243 µM)	4.21 µg/mL (≈ 10.2 µM)	> 200 µg/mL	Non-toxic	> 200 µg/mL	–
COC(=O)[C@H](CCCNC(=N)N)NC(=O)[C@@H](N)Cc1c[nH]c(C2CCC2)n1	6.66 µg/mL (≈ 17.6 µM)	15.3 µg/mL (≈ 40.3 µM)	200 µg/mL (≈ 527 µM)	200 µg/mL (≈ 527 µM)	200 µg/mL (≈ 527 µM)	14 µg/mL (≈ 36.8 µM)	100 µg/mL (≈ 264 µM)	9.28 µg/mL (≈ 24.5 µM)	> 200 µg/mL	Non-toxic	> 200 µg/mL	–
N[C@@H](Cc1c[nH]c2ccccc12)C(=O)N[C@@H](Cc1c[nH]cn1)C(=O)NCc1ccccc1 (H-Trp-His-NHBn)	29 µg/mL (≈ 67.3 µM)	–	200 µg/mL (≈ 465 µM)	> 200 µg/mL	200 µg/mL (≈ 465 µM)	15.2 µg/mL (≈ 35.2 µM)	200 µg/mL (≈ 465 µM)	12.3 µg/mL (≈ 28.5 µM)	> 200 µg/mL	Non-toxic	> 200 µg/mL	–
COC(=O)[C@H](Cc1c[nH]cn1)NC(=O)[C@@H](N)Cc1c[nH]c2ccccc12 (H-Trp-His-OMe)	–	18.5 µg/mL (≈ 52.1 µM)	> 200 µg/mL	200 µg/mL (≈ 563 µM)	200 µg/mL (≈ 563 µM)	20.6 µg/mL (≈ 58 µM)	> 200 µg/mL	–	> 200 µg/mL	Non-toxic	> 200 µg/mL	–
NC[C@@H]1O[C@H](O[C@H]2[C@@H](O)[C@H](O[C@@H]3[C@@H](O)[C@H](N)C[C@H](N)[C@H]3O[C@H]3O[C@H](CN)[C@@H](O)[C@H](O)[C@H]3N)O[C@@H]2CO)[C@H](N)[C@@H](O)[C@@H]1O [FRAMYCETIN]	–	–	–	–	–	–	–	–	–	–	–	0.6 µg/mL (≈ 0.976 µM)
CN[C@@H]1[C@H](O[C@H]2[C@H](O[C@H]3[C@H](O)[C@@H](O)[C@H](N=C(N)N)[C@@H](O)[C@@H]3N=C(N)N)O[C@@H](C)[C@]2(O)C=O)O[C@@H](CO)[C@H](O)[C@H]1O [STREPTOMYCIN]	–	0.73 µg/mL (≈ 1.26 µM)	–	–	–	–	–	–	–	–	–	–
